Test results reported in publication PMC9532951, “Identification and characterization of a novel SNAT2 (SLC38A2) inhibitor reveals synergy with glucose transport inhibition in cancer cells” (Frontiers in Pharmacology, 2022).
Values joined by “and” are separate entries in the source; they are usually repeats but may differ in a detail not shown here. Equal values may be shown once.

Assays:
Format in all cases: cell-based, human
MDA-MB-231 cells = test: Growth assay (IncuCyte confluence), MDA-MB-231; design: key to Growth (Figure 6A) / cell confluence (Figure 6F): % confluence; details: for Growth (Figure 6A): MDA-MB-231
Description: (§1) Cells were seeded on 96-well flat bottom plates at approximately 3000 cells/well and incubated in growth medium (DMEM/F12 supplemented with 10% FBS, 2 mM glutamine) for 24 h. The next day, the growth medium was aspirated and exchanged with 300 μL/well of growth medium containing compounds at the indicated concentration. For live cell analysis, plates were placed in the IncuCyte system (Essen Bioscience), which was housed in a cell incubator (37°C, humidified atmosphere composed of 95% air and 5% CO2) and confluence measured at 6-h intervals or at the assay endpoint when untreated control cells reached a confluency >90%. Antibiotics (10 U/mL penicillin and 10 μg/ml streptomycin) were included in the treatment solutions.
(§2) Growth curves were generated using the Gompertz function of OriginPro software: y=ae^−e^(−k(x−xc))
(§3) Where a is the maximum confluence or upper asymptote, k is the growth rate coefficient, xc is the time point at which 50% confluence is reached (inflection point) and e is Euler’s number. Cell growth data are shown as % confluence.
Synergism between drug combinations was quantified using ZIP synergy scoring as calculated by SynergyFinder ([Yadav et al., 2015]).

HCC1806 wild-type cells = test: FMP assay in the absence of amino acid substrate (non-specific effects)
Description: The FLIPR Membrane Potential Blue Explorer Kit (Molecular Devices) was used to characterise inhibitors and to optimise a high-throughput compound screen. Cells were seeded at approximately 60,000 cells/well on a 96-well plate and allowed to attach and grow overnight in a cell incubator. The next day, the cells were washed once with mHBSS and incubated in a starvation medium (composed of mHBSS with 1% dialysed heat-inactivated FBS, 23 mM NaHCO3, 10 U/ml penicillin and 10 μg/ml streptomycin) for 24 h. Cells were then washed once with mHBSS and incubated with 50 µl of the mHBSS-resuspended FMP assay dye and 50 µl of mHBSS (with or without inhibitors) and incubated at room temperature for 30 min. The plate was then placed in an EnSpire Multimode plate reader (PerkinElmer) and four sequential measurements of fluorescence were recorded as a baseline reference. […] The excitation wavelength was set to 530 nm and the emission was detected at 565 nm. The Δ fluorescent signal reported in the figures was taken 30 s after substrate addition. After the assay was complete, the liquid content of the plate was carefully removed, and the cell monolayer inspected to ensure it remained intact throughout the course of the assay.

SKOV3 cells = test: Growth assay (IncuCyte confluence), SKOV3; design: key to Growth (Figure 6A): % confluence; details: for Growth (Figure 6A): SKOV3
Description: as §1, §2, §3

HCC1806 cells = test: Growth assay (IncuCyte confluence), HCC1806; details: HCC1806, growth medium
Description: as §1, §2, §3

OVCAR3 cells = test: Growth assay (IncuCyte confluence), OVCAR3
How it was run: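 OVCAR3 cells were seeded at about 3000 cells/well in 96-well plates in DMEM/F12 with 10% FBS and 2 mM glutamine for 24 h. They then received 300 μL/well of medium with compounds plus penicillin/streptomycin. Plates sat in an IncuCyte at 37°C and 5% CO2, and confluence was imaged every 6 h or at the endpoint once untreated controls passed 90%. Growth is given as % confluence, and curves were fitted with the Gompertz function in OriginPro.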

SNAT1/2 = test: FMP assay: depolarisation by amino acid substrates in amino acid depleted HCC1806 cells
Description: The FLIPR Membrane Potential Blue Explorer Kit (Molecular Devices) was used to characterise inhibitors and to optimise a high-throughput compound screen. Cells were seeded at approximately 60,000 cells/well on a 96-well plate and allowed to attach and grow overnight in a cell incubator. […] Cells were then washed once with mHBSS and incubated with 50 µl of the mHBSS-resuspended FMP assay dye and 50 µl of mHBSS (with or without inhibitors) and incubated at room temperature for 30 min. The plate was then placed in an EnSpire Multimode plate reader (PerkinElmer) and four sequential measurements of fluorescence were recorded as a baseline reference. Immediately after the baseline measurements were taken, 25 µl of 5 mM glutamine dissolved in mHBSS was injected into each well and the plate was shaken orbitally for 5 s before a series of consecutive fluorescence measurements were taken. The excitation wavelength was set to 530 nm and the emission was detected at 565 nm. […] After the assay was complete, the liquid content of the plate was carefully removed, and the cell monolayer inspected to ensure it remained intact throughout the course of the assay.

SMILES: Cc1ccc(S(=O)(=O)N(C)c2ccsc2C(=O)NCc2ccccc2C(F)(F)F)cc1 [Compound 57_E, 3-(N-methyl (4-methylphenyl)sulfonamido)-N-(2-trifluoromethylbenzyl)thiophene-2-carboxamide]
- tolerated concentration (MDA-MB-231 cells; MDA-MB-231, growth medium): up to 30 μM
- Growth (Figure 6A) (MDA-MB-231 cells; concentration 1): 82.35 and 90.35 and 97.85
- Growth (Figure 6A) (MDA-MB-231 cells; concentration 3): 76.3 and 97.1 and 98.3
- Growth (Figure 6A) (MDA-MB-231 cells; concentration 10): 70.5 and 94.85 and 92.9
- Growth (Figure 6A) (MDA-MB-231 cells; concentration 30): 68.4 and 70.75 and 88.35
- Growth (Figure 6A) (MDA-MB-231 cells; concentration 100): 57.95 and 91.15 and 66.7
- effect on FMP signal without substrate (HCC1806 wild-type cells; 30 µM): small hyperpolarisation
- FMP fluorescence trace (Figure 4C) (HCC1806 wild-type cells; time 0): 66214 and 65985 and 59075
- FMP fluorescence trace (Figure 4C) (HCC1806 wild-type cells; time 20): 50115 and 66503 and 60514
- FMP fluorescence trace (Figure 4C) (HCC1806 wild-type cells; time 40): 49573 and 67066 and 60917
- FMP fluorescence trace (Figure 4C) (HCC1806 wild-type cells; time 60): 49249 and 67578 and 60989
- FMP fluorescence trace (Figure 4C) (HCC1806 wild-type cells; time 80): 48925 and 68056 and 61565
- FMP fluorescence trace (Figure 4C) (HCC1806 wild-type cells; time 100): 48207 and 68319 and 61663
- FMP fluorescence trace (Figure 4C) (HCC1806 wild-type cells; time 120): 47392 and 68434 and 62185
- FMP fluorescence trace (Figure 4C) (HCC1806 wild-type cells; time 140): 47194 and 68990 and 62194
- FMP fluorescence trace (Figure 4C) (HCC1806 wild-type cells; time 160): 46255 and 69305 and 62352
- FMP fluorescence trace (Figure 4C) (HCC1806 wild-type cells; time 180): 45269 and 69919 and 62492
- FMP fluorescence trace (Figure 4C) (HCC1806 wild-type cells; time 200): 44480 and 70206 and 63053
- FMP fluorescence trace (Figure 4C) (HCC1806 wild-type cells; time 220): 43946 and 70155 and 63572
- FMP fluorescence trace (Figure 4C) (HCC1806 wild-type cells; time 240): 43376 and 70703 and 63707
- FMP fluorescence trace (Figure 4C) (HCC1806 wild-type cells; time 260): 42447 and 71161 and 64093
- FMP fluorescence trace (Figure 4C) (HCC1806 wild-type cells; time 280): 41764 and 71707 and 64350
- FMP fluorescence trace (Figure 4C) (HCC1806 wild-type cells; time -20): 65818 and 65842 and 59063
- FMP fluorescence trace (Figure 4C) (HCC1806 wild-type cells; time -40): 65477 and 66036 and 58494
- growth of SKOV3 cells (SKOV3 cells; 57E 20 µM alone): did not slow growth
- tolerated concentration (SKOV3 cells; SKOV3, growth medium): up to 30 μM
- Growth (Figure 6A) (SKOV3 cells; concentration 1): 88.8 and 91.35 and 86.25
- Growth (Figure 6A) (SKOV3 cells; concentration 3): 85.9 and 94.3 and 88.85
- Growth (Figure 6A) (SKOV3 cells; concentration 10): 89 and 93.8 and 85
- Growth (Figure 6A) (SKOV3 cells; concentration 30): 64.8 and 80.1 and 77.7
- Growth (Figure 6A) (SKOV3 cells; concentration 100): 70.05 and 72.4 and 76.75
- tolerated concentration (HCC1806 cells): up to 30 μM
- Growth (Figure 6A) (OVCAR3 cells; concentration 1): 94.3 and 98.2 and 97.5
- Growth (Figure 6A) (OVCAR3 cells; concentration 3): 91.1 and 97.6 and 98.2
- Growth (Figure 6A) (OVCAR3 cells; concentration 10): 93.85 and 97.6 and 98.05
- Growth (Figure 6A) (OVCAR3 cells; concentration 30): 90.7 and 97.95
- Growth (Figure 6A) (OVCAR3 cells; concentration 100): 89.25 and 92.95 and 91.35

SMILES: NC(=O)CC[C@H](N)C(=O)O [Glutamine, glutamine]
- FMP response as substrate (SNAT1/2; 1 mM): strongest response
- Km (SNAT1/2; FMP signal plateau vs glutamine concentration, HCC1806 AA- (24h)): 120 ± 10 µM
- FMP fluorescence reading (SNAT1/2; glutamine 0.01mM, t=60 s): 68858 and 69253 and 69708
- FMP fluorescence reading (SNAT1/2; glutamine 0.01mM, t=75 s): 69325 and 69681 and 70188
- FMP fluorescence reading (SNAT1/2; glutamine 0.01mM, t=90 s): 69269 and 70070 and 70405
- FMP fluorescence reading (SNAT1/2; glutamine 0.01mM, t=105 s): 69763 and 69788 and 70466
- FMP fluorescence reading (SNAT1/2; glutamine 0.03mM (c24-c26), t=60 s): 77460 and 80576 and 83628
- FMP fluorescence reading (SNAT1/2; glutamine 0.03mM (c24-c26), t=75 s): 77730 and 80978 and 84391
- FMP fluorescence reading (SNAT1/2; glutamine 0.03mM (c24-c26), t=90 s): 78184 and 81512 and 84232
- FMP fluorescence reading (SNAT1/2; glutamine 0.03mM (c24-c26), t=105 s): 78227 and 82096 and 85186
- FMP fluorescence reading (SNAT1/2; glutamine 0.03mM (last group, c32-c34), t=60 s): 64072 and 69800 and 70295
- FMP fluorescence reading (SNAT1/2; glutamine 0.03mM (last group, c32-c34), t=75 s): 63883 and 70289 and 71073
- FMP fluorescence reading (SNAT1/2; glutamine 0.03mM (last group, c32-c34), t=90 s): 63947 and 70196 and 70790
- FMP fluorescence reading (SNAT1/2; glutamine 0.03mM (last group, c32-c34), t=105 s): 64771 and 70484 and 71450
- FMP fluorescence reading (SNAT1/2; glutamine 0.1mM, t=60 s): 88925 and 96285 and 98180
- FMP fluorescence reading (SNAT1/2; glutamine 0.1mM, t=75 s): 90234 and 97546 and 98972
- FMP fluorescence reading (SNAT1/2; glutamine 0.1mM, t=90 s): 91221 and 98690 and 100400
- FMP fluorescence reading (SNAT1/2; glutamine 0.1mM, t=105 s): 92076 and 98971 and 100952
- FMP fluorescence reading (SNAT1/2; glutamine 0.3mM, t=60 s): 99455 and 107961 and 111369
- FMP fluorescence reading (SNAT1/2; glutamine 0.3mM, t=75 s): 100398 and 109749 and 113586
- FMP fluorescence reading (SNAT1/2; glutamine 0.3mM, t=90 s): 101543 and 111206 and 114721
- FMP fluorescence reading (SNAT1/2; glutamine 0.3mM, t=105 s): 102418 and 111967 and 115020
- FMP fluorescence reading (SNAT1/2; glutamine 1mM, t=60 s): 112569 and 120148 and 129663
- FMP fluorescence reading (SNAT1/2; glutamine 1mM, t=75 s): 115039 and 122576 and 131835
- FMP fluorescence reading (SNAT1/2; glutamine 1mM, t=90 s): 116433 and 124735 and 133470
- FMP fluorescence reading (SNAT1/2; glutamine 1mM, t=105 s): 117747 and 125438 and 134724
- FMP fluorescence reading (SNAT1/2; glutamine 1mM, t=120 s): 118812 and 126597 and 134693
- FMP fluorescence reading (SNAT1/2; glutamine 3mM, t=60 s): 133412 and 124199 and 129325
- FMP fluorescence reading (SNAT1/2; glutamine 3mM, t=75 s): 135706 and 127374 and 131981
- FMP fluorescence reading (SNAT1/2; glutamine 3mM, t=90 s): 138077 and 129014 and 134980
- FMP fluorescence reading (SNAT1/2; glutamine 3mM, t=105 s): 139888 and 130819 and 136553
- FMP fluorescence reading (SNAT1/2; glutamine 3mM, t=120 s): 140944
- FMP fluorescence reading (SNAT1/2; glutamine 10mM, t=60 s): 123199 and 132978 and 133617
- FMP fluorescence reading (SNAT1/2; glutamine 10mM, t=75 s): 127611 and 136168 and 137553
- FMP fluorescence reading (SNAT1/2; glutamine 10mM, t=90 s): 130129 and 138788 and 140464
- FMP fluorescence reading (SNAT1/2; glutamine 10mM, t=105 s): 132559 and 141221 and 142567
